Reference: patent US20210238197A1, “NOVEL OXOQUINOLIZINE COMPOUNDS FOR THE TREATMENT AND PROPHYLAXIS OF BACTERIAL INFECTION” (Hoffmann-La Roche Inc., priority 2018, published 2021)
pIC50: −log10 of the molar value. In brackets after ≈: the same amount, converted by molar mass. Where two headings read alike, the source gives them in different places.

Tests used:
[1] = tested on: S. aureus (ATCC29213); test: 50% growth inhibitory concentration (IC50) determination assay, S. aureus; type: cell-based; conditions: Staphylococcus aureus, ATCC29213; Iso-Sensitest broth, growth by OD 600 nm over 16 h; <0.098 = detection limit
Description: (§1) The in vitro antimicrobial activity of the compounds against S. aureus (ATCC29213), K. pneumoniae (ATCC10031), and A. baumannii (ATCC17978), was determined according to the following procedure: The assay used a 10-points Iso-Sensitest broth medium to measure quantitatively the in vitro activity of the compounds against S. aureus ATCC29213, K. pneumoniae ATCC 10031, and A. baumannii ATCC17978. Stock compounds in DMSO were serially two-fold diluted (range from 50 to 0.097 μM final concentration) in 384 wells microtiter plates and inoculated with 49 μL the bacterial suspension in Iso-Sensitest broth medium to have a final cell concentration of ˜5×10^5 CFU/mL in a final volume/well of 50 μL/well. Microtiter plates were incubated at 35±2° C. Bacterial cell growth was determined with the measurement of optical density at λ=600 nm each 20 minutes over a time course of 16 h.

[2] = tested on: K. pneumoniae (ATCC10031); test: 50% growth inhibitory concentration (IC50) determination assay, K. pneumoniae; type: cell-based; conditions: Klebsiella pneumoniae, ATCC10031; Iso-Sensitest broth, growth by OD 600 nm over 16 h; <0.098 = detection limit
Description: as §1

[3] = tested on: A. baumannii (ATCC17978); test: 50% growth inhibitory concentration (IC50) determination assay, A. baumannii; type: cell-based; conditions: Acinetobacter baumannii, ATCC17978; Iso-Sensitest broth, growth by OD 600 nm over 16 h; <0.098 = detection limit
Description: as §1

[4] = tested on: multiple species and strains; test: microbe, parasite or virus in culture; parameters: MIC S9 / MIC S7 / MIC S11 / MIC S8 / MIC S10: unit not given beside the values; conditions: for MIC S9: E. coli ATCC 35218
Description: The MIC of antibacterial compounds against multiple species and strains was determined using the broth microdilution method according to M07-A10 Clinical and Laboratory Standards Institute (CLSI) guidelines (CLSI (2015) Methods for dilution antimicrobial susceptibility tests for bacteria that grow aerobically; Approved Standard, Tenth Edition. CLSI Document M7-A10 (ISBN 1-56238-987-4). Wayne, Pa.: Clinical and Laboratory Standards Institute, 19087, USA.). In short, bacterial strain preparation was performed on D1 and D2. […] 5-10 well-isolated colonies of similar morphology were selected and re-streaked onto fresh agar plates using sterile loops and incubated for 20-24 hr at 35±2° C. Bacterial strains were subcultured two times to ensure fresh inoculums for MIC screening. […] Alternatively, 1-2 colonies were transferred into 500 μL of saline and OD600 was adjusted to ˜0.1 using an OD meter. Bacterial inoculum was diluted by 1:280 for Gram-positive strains and 1:400 for Gram-negative strains into corresponding medium broth (CAMHB, CAMHB+3% lysed horse blood, HTM) (e.g. 35.6 μL of inoculum into 10 mL of CAMHB or 25 μL of inoculum into 10 mL of CAMHB). For compound plate, the compound stock solutions were prepared in 100% DMSO on the day of MIC screening and used immediately. Compound stock concentration=[(highest testing concentration)×100 μL/2 μL] (e.g. if the required highest testing concentration is 64 μg/mL in assay plates, stock concentration=64 μg/mL×100 μL/2 μL=3.2 mg/mL). […] 1 μL of each well was transferred in a new MTP, which served as the test plate by subsequent inoculation. The bacterial suspension prepared above is dispensed at 98 μL/well within 15 minutes after preparation. Negative controls (lack of bacterial cells) and growth control wells (lack of compound) were included in all plates. MTPs were incubated for 18-24 hours at 35±2° C. in ambient air. The MIC was recorded and CFUs were calculated on Day 4. The assay plate was placed on the top of MIC reader, and the magnification mirror was adjusted to read each wells, recording growth status as raw data. Photo images of each assay plates were recorded using Q Count 530 (Spiral Biotech). The MIC value of each compound, expressed as μg/mL, was determined as the lowest concentration required for complete growth inhibition (no visible growth).

[5] = Acinetobacter baumannii, ATCC19606, read-out: MIC S1, A. baumannii ATCC 19606
[6] = Acinetobacter baumannii, ATCC51432, read-out: MIC S2, A. baumannii ATCC 51432
[7] = Acinetobacter baumannii, ATCCBAA747, read-out: MIC S3, A. baumannii ATCC BAA-747
[8] = Escherichia coli, ATCC25922, read-out: MIC S11, E. coli ATCC 25922
[9] = Escherichia coli, ATCCBAA2340, read-out: MIC S10, E. coli ATCC BAA-2340
[10] = Klebsiella pneumoniae, ATCC10031, read-out: MIC S4, K. pneumoniae ATCC 10031
[11] = Klebsiella pneumoniae, ATCC700603, read-out: MIC S5, K. pneumoniae ATCC 700603
[12] = Klebsiella pneumoniae, ATCCBAA2146, read-out: MIC S6, K. pneumoniae ATCC BAA-2146
[13] = Pseudomonas aeruginosa, ATCC27853, read-out: MIC S7, P. aeruginosa ATCC 27853
[14] = Pseudomonas aeruginosa, ATCCBAA2113, read-out: MIC S8, P. aeruginosa ATCC BAA-2113

**Q.** How did the pIC50 [1] turn out when `CNc1cc(F)c(F)c2c1[nH]c1ncc(-c3ccc4ccc(C(=O)O)c(=O)n4c3)c(N3CC4[C@H](CC[C@@H]4N(C)C)C3)c12` (stereo partly drawn) [Example 1.09, 7-[4-[cis-(4S)-4-(dimethylamino)-3,3a,4,5,6,6a-hexahydro-1H-cyclopenta[c]pyrrol-2-yl]-5,6-difluoro-8-(methylamino)-9H-pyrido[2,3-b]indol-3-yl]-4-oxo-quinolizine-3-carboxylic acid] was run?
**A.** > 7.01

**Q.** And the pIC50 [2]?
**A.** > 7.01

**Q.** And the pIC50 [3]?
**A.** > 7.01

**Q.** How did the pIC50 [1] turn out when `CNc1cc(F)c(F)c2c1[nH]c1ncc(-c3ccc4c(Cl)cc(C(=O)O)c(=O)n4c3)c(N3CC[C@H]4CN(C)C[C@H]43)c12` (relative stereo) [Example 2.11, 7-[4-[cis-5-methyl-2,3,3a,4,6,6a-hexahydropyrrolo[2,3-c]pyrrol-1-yl]-5,6-difluoro-8-(methylamino)-9H-pyrido[2,3-b]indol-3-yl]-1-chloro-4-oxo-quinolizine-3-carboxylic acid] was run?
**A.** > 7.01

**Q.** What about the pIC50 [2] of the same compound?
**A.** > 7.01

**Q.** What about the pIC50 [3] of the same compound?
**A.** > 7.01

**Q.** What about the MIC [4, 5] of the same compound?
**A.** 0.27 µg/mL (≈ 0.466 µM)

**Q.** And the MIC [4, 6]?
**A.** 0.541 µg/mL (≈ 0.934 µM)

**Q.** What about the MIC [4, 7] of the same compound?
**A.** 0.541 µg/mL (≈ 0.934 µM)

**Q.** What about the “MIC S9” value [4] of the same compound?
**A.** 1.081

**Q.** What about the MIC [4, 8] of the same compound?
**A.** 0.203 µg/mL (≈ 0.351 µM)

**Q.** And the MIC [4, 9]?
**A.** 1.08 µg/mL (≈ 1.87 µM)

**Q.** What about the MIC [4, 10] of the same compound?
**A.** 0.068 µg/mL (≈ 0.117 µM)

**Q.** What about the MIC [4, 11] of the same compound?
**A.** 4.33 µg/mL (≈ 7.48 µM)

**Q.** And the MIC [4, 12]?
**A.** 4.33 µg/mL (≈ 7.48 µM)

**Q.** What about the MIC [4, 13] of the same compound?
**A.** 2.17 µg/mL (≈ 3.74 µM)

**Q.** And the MIC [4, 14]?
**A.** 4.33 µg/mL (≈ 7.48 µM)

**Q.** What does the source list for `CNc1cc(F)c(F)c2c1[nH]c1ncc(-c3ccc4ccc(C(=O)O)c(=O)n4c3)c(N3C[C@H]4CCN(C)[C@H]4C3)c12` [Example 3.03A, 7-[4-[(3aR,6aR)-1-methyl-2,3,3a,4,6,6a-hexahydropyrrolo[3,4-b]pyrrol-5-yl]-5,6-difluoro-8-(methylamino)-9H-pyrido[2,3-b]indol-3-yl]-4-oxo-quinolizine-3-carboxylic acid]?
**A.** pIC50 [1]: > 7.01; pIC50 [2]: > 7.01; pIC50 [3]: > 7.01; MIC [4, 5]: 0.106 µg/mL (≈ 0.195 µM); MIC [4, 6]: 0.212 µg/mL (≈ 0.389 µM); MIC [4, 7]: 0.212 µg/mL (≈ 0.389 µM); MIC S9 [4]: 0.425; MIC [4, 8]: 0.08 µg/mL (≈ 0.147 µM); MIC [4, 9]: 0.425 µg/mL (≈ 0.78 µM); MIC [4, 10]: 0.027 µg/mL (≈ 0.0496 µM); MIC [4, 11]: 3.4 µg/mL (≈ 6.25 µM); MIC [4, 12]: 1.7 µg/mL (≈ 3.13 µM); MIC [4, 13]: 0.85 µg/mL (≈ 1.56 µM); MIC [4, 14]: 3.4 µg/mL (≈ 6.25 µM)

**Q.** With `CNc1cc(F)c(Cl)c2c1[nH]c1ncc(-c3ccc4ccc(C(=O)O)c(=O)n4c3)c(N3C[C@H]4CC[C@@H](N(C)C)[C@H]4C3)c12` [Example 1.08, 7-[4-[cis-(4R)-4-(dimethylamino)-3,3a,4,5,6,6a-hexahydro-1H-cyclopenta[c]pyrrol-2-yl]-5-chloro-6-fluoro-8-(methylamino)-9H-pyrido[2,3-b]indol-3-yl]-4-oxo-quinolizine-3-carboxylic acid] as the compound, how does the pIC50 [1] read?
**A.** > 7.01

**Q.** And the pIC50 [2]?
**A.** > 7.01

**Q.** What about the pIC50 [3] of the same compound?
**A.** > 7.01

**Q.** And the MIC [4, 5]?
**A.** 0.274 µg/mL (≈ 0.465 µM)

**Q.** What about the MIC [4, 6] of the same compound?
**A.** 0.274 µg/mL (≈ 0.465 µM)

**Q.** What about the MIC [4, 7] of the same compound?
**A.** 0.548 µg/mL (≈ 0.93 µM)

**Q.** And the “MIC S9” value [4]?
**A.** 0.548

**Q.** And the MIC [4, 8]?
**A.** 0.206 µg/mL (≈ 0.35 µM)

**Q.** And the MIC [4, 9]?
**A.** 0.548 µg/mL (≈ 0.93 µM)

**Q.** What about the MIC [4, 10] of the same compound?
**A.** 0.069 µg/mL (≈ 0.117 µM)

**Q.** And the MIC [4, 11]?
**A.** 4.39 µg/mL (≈ 7.46 µM)

**Q.** And the MIC [4, 12]?
**A.** 2.2 µg/mL (≈ 3.73 µM)

**Q.** And the MIC [4, 13]?
**A.** 2.2 µg/mL (≈ 3.73 µM)

**Q.** And the MIC [4, 14]?
**A.** 4.39 µg/mL (≈ 7.46 µM)

**Q.** Which results are given for `CNc1cc(F)c(F)c2c1[nH]c1ncc(-c3ccc4ccc(C(=O)O)c(=O)n4c3)c(N3C[C@@H]4CCN(C)[C@@H]4C3)c12` [Example 3.03B, 7-[4-[(3aS,6aS)-1-methyl-2,3,3a,4,6,6a-hexahydropyrrolo[3,4-b]pyrrol-5-yl]-5,6-difluoro-8-(methylamino)-9H-pyrido[2,3-b]indol-3-yl]-4-oxo-quinolizine-3-carboxylic acid]?
**A.** pIC50 [1]: > 7.01; pIC50 [2]: > 7.01; pIC50 [3]: > 7.01
